Laboratory results from patent publication US20230000813A1, “COMPOUND FOR THE TREATMENT OF BOVINE OR SWINE RESPIRATORY DISEASE” (Intervet Inc., priority 2016, published 2023).
≈ marks a conversion by molar mass, not a printed value.

Test system: Mannheimia haemolytica MH 6374 (ATCC 33396, reference strain)
Assay: MIC, broth-microdilution (CLSI VET01-A4)
Format: cell-based
Details: Mannheimia haemolytica MH 6374
In short: (§1)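 MIC values follow CLSI VET01-S3 interpretation, scored as the lowest concentration free of visible turbidity within a doubling dilution series in microdilution trays.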

Row | Structure (SMILES) | MIC MH 6374
1 | CC(C)(O)C(NC(=O)c1ccc(C#Cc2ccc(CNCc3cccs3)cc2)cc1)C(=O)NO (stereo not shown) [Compound 578] | <=0.1 μM
2 | C[C@@H](O)[C@H](NC(=O)c1ccc(C#Cc2ccc(CNCc3cccs3)cc2)cc1)C(=O)NO [Compound 260] | <=0.1 μM

Same assay, conditions: Mannheimia haemolytica MH 6374; read-out: MIC MH 6374

Row | Structure (SMILES) | MIC
3 | C[C@@H](O)[C@H](NC(=O)c1ccc(C#Cc2ccc(CNCc3nccs3)cc2)cc1)C(=O)NO [Compound 359] | 0.2 µM (≈ 0.0929 µg/mL)
4 | CC(C)(O)C(NC(=O)c1ccc(C#Cc2ccc(CNCc3ccccn3)cc2)cc1)C(=O)NO (stereo not shown) [Compound 576] | 0.4 µM (≈ 0.189 µg/mL)

Test system: Pasteurella multocida PM 12080 (IV102277-0093, BRD field isolate)
Assay: MIC, broth-microdilution (CLSI VET01-A4)
Format: cell-based
Details: Pasteurella multocida PM 12080
In short: as §1

Row | Structure (SMILES) | MIC PM 12080
5 | C[C@@H](O)[C@H](NC(=O)c1ccc(C#Cc2ccc(CNCc3nccs3)cc2)cc1)C(=O)NO [Compound 359] | <=0.1 μM
6 | CC(C)(O)C(NC(=O)c1ccc(C#Cc2ccc(CNCc3ccccn3)cc2)cc1)C(=O)NO (stereo not shown) [Compound 576] | <=0.1 μM
7 | CC(C)(O)C(NC(=O)c1ccc(C#Cc2ccc(CNCc3cccs3)cc2)cc1)C(=O)NO (stereo not shown) [Compound 578] | <=0.1 μM
8 | C[C@@H](O)[C@H](NC(=O)c1ccc(C#Cc2ccc(CNCc3cccs3)cc2)cc1)C(=O)NO [Compound 260] | <=0.1 μM

Test system: Pasteurella multocida PM 6391 (ATCC 43137, reference strain)
Assay: MIC, broth-microdilution (CLSI VET01-A4)
Format: cell-based
Details: Pasteurella multocida PM 6391
In short: as §1

Row | Structure (SMILES) | MIC PM 6391
9 | C[C@@H](O)[C@H](NC(=O)c1ccc(C#Cc2ccc(CNCc3nccs3)cc2)cc1)C(=O)NO [Compound 359] | <=0.1 μM
10 | CC(C)(O)C(NC(=O)c1ccc(C#Cc2ccc(CNCc3ccccn3)cc2)cc1)C(=O)NO (stereo not shown) [Compound 576] | <=0.1 μM
11 | CC(C)(O)C(NC(=O)c1ccc(C#Cc2ccc(CNCc3cccs3)cc2)cc1)C(=O)NO (stereo not shown) [Compound 578] | <=0.1 μM
12 | C[C@@H](O)[C@H](NC(=O)c1ccc(C#Cc2ccc(CNCc3cccs3)cc2)cc1)C(=O)NO [Compound 260] | <=0.1 μM

Test system: Pasteurella multocida PM 6267 (P 2225 (L386), reference strain, mouse infection strain)
Assay: MIC, broth-microdilution (CLSI VET01-A4)
Format: cell-based
Details: Pasteurella multocida PM 6267
In short: as §1

Row | Structure (SMILES) | MIC PM 6267
13 | C[C@@H](O)[C@H](NC(=O)c1ccc(C#Cc2ccc(CNCc3nccs3)cc2)cc1)C(=O)NO [Compound 359] | <=0.1 μM
14 | CC(C)(O)C(NC(=O)c1ccc(C#Cc2ccc(CNCc3ccccn3)cc2)cc1)C(=O)NO (stereo not shown) [Compound 576] | <=0.1 μM
15 | CC(C)(O)C(NC(=O)c1ccc(C#Cc2ccc(CNCc3cccs3)cc2)cc1)C(=O)NO (stereo not shown) [Compound 578] | <=0.1 μM
16 | C[C@@H](O)[C@H](NC(=O)c1ccc(C#Cc2ccc(CNCc3cccs3)cc2)cc1)C(=O)NO [Compound 260] | <=0.1 μM

Test system: Pasteurella multocida PM 10775 (080130003051, BRD field isolate)
Assay: MIC, broth-microdilution (CLSI VET01-A4)
Format: cell-based
Details: Pasteurella multocida PM 10775
In short: as §1

Row | Structure (SMILES) | MIC PM 10775
17 | C[C@@H](O)[C@H](NC(=O)c1ccc(C#Cc2ccc(CNCc3nccs3)cc2)cc1)C(=O)NO [Compound 359] | <=0.1 μM
18 | CC(C)(O)C(NC(=O)c1ccc(C#Cc2ccc(CNCc3ccccn3)cc2)cc1)C(=O)NO (stereo not shown) [Compound 576] | <=0.1 μM
19 | CC(C)(O)C(NC(=O)c1ccc(C#Cc2ccc(CNCc3cccs3)cc2)cc1)C(=O)NO (stereo not shown) [Compound 578] | <=0.1 μM
20 | C[C@@H](O)[C@H](NC(=O)c1ccc(C#Cc2ccc(CNCc3cccs3)cc2)cc1)C(=O)NO [Compound 260] | <=0.1 μM

Test system: Mannheimia haemolytica MH 12587 (1071, BRD field isolate, macrolide-resistance: erm+, E+)
Assay: MIC, broth-microdilution (CLSI VET01-A4)
Format: cell-based
Details: Mannheimia haemolytica MH 12587, macrolide-resistant
In short: as §1

Row | Structure (SMILES) | MIC MH 12587
21 | C[C@@H](O)[C@H](NC(=O)c1ccc(C#Cc2ccc(CNCc3nccs3)cc2)cc1)C(=O)NO [Compound 359] | 0.4 µM (≈ 0.186 µg/mL)
22 | CC(C)(O)C(NC(=O)c1ccc(C#Cc2ccc(CNCc3ccccn3)cc2)cc1)C(=O)NO (stereo not shown) [Compound 576] | 1.6 µM (≈ 0.756 µg/mL)
23 | CC(C)(O)C(NC(=O)c1ccc(C#Cc2ccc(CNCc3cccs3)cc2)cc1)C(=O)NO (stereo not shown) [Compound 578] | 0.4 µM (≈ 0.191 µg/mL)
24 | C[C@@H](O)[C@H](NC(=O)c1ccc(C#Cc2ccc(CNCc3cccs3)cc2)cc1)C(=O)NO [Compound 260] | 0.4 µM (≈ 0.185 µg/mL)

Test system: Mannheimia haemolytica MH 6357 (M7/2, reference strain, cattle infection strain)
Assay: MIC, broth-microdilution (CLSI VET01-A4)
Format: cell-based
Details: Mannheimia haemolytica MH 6357
In short: as §1

Row | Structure (SMILES) | MIC MH 6357
25 | C[C@@H](O)[C@H](NC(=O)c1ccc(C#Cc2ccc(CNCc3cccs3)cc2)cc1)C(=O)NO [Compound 260] | <=0.1 μM

Same assay, conditions: Mannheimia haemolytica MH 6357; read-out: MIC MH 6357

Row | Structure (SMILES) | MIC
26 | C[C@@H](O)[C@H](NC(=O)c1ccc(C#Cc2ccc(CNCc3nccs3)cc2)cc1)C(=O)NO [Compound 359] | 0.2 µM (≈ 0.0929 µg/mL)
27 | CC(C)(O)C(NC(=O)c1ccc(C#Cc2ccc(CNCc3ccccn3)cc2)cc1)C(=O)NO (stereo not shown) [Compound 576] | 0.8 µM (≈ 0.378 µg/mL)
28 | CC(C)(O)C(NC(=O)c1ccc(C#Cc2ccc(CNCc3cccs3)cc2)cc1)C(=O)NO (stereo not shown) [Compound 578] | 0.4 µM (≈ 0.191 µg/mL)

Test system: Mannheimia haemolytica MH 10720 (154, BRD field isolate)
Assay: MIC, broth-microdilution (CLSI VET01-A4)
Format: cell-based
Details: Mannheimia haemolytica MH 10720
In short: as §1

Row | Structure (SMILES) | MIC MH 10720
29 | C[C@@H](O)[C@H](NC(=O)c1ccc(C#Cc2ccc(CNCc3nccs3)cc2)cc1)C(=O)NO [Compound 359] | <=0.1 μM
30 | CC(C)(O)C(NC(=O)c1ccc(C#Cc2ccc(CNCc3ccccn3)cc2)cc1)C(=O)NO (stereo not shown) [Compound 576] | <=0.1 μM
31 | CC(C)(O)C(NC(=O)c1ccc(C#Cc2ccc(CNCc3cccs3)cc2)cc1)C(=O)NO (stereo not shown) [Compound 578] | <=0.1 μM
32 | C[C@@H](O)[C@H](NC(=O)c1ccc(C#Cc2ccc(CNCc3cccs3)cc2)cc1)C(=O)NO [Compound 260] | <=0.1 μM

Test system: Mannheimia haemolytica MH 13065 (XB0446-6003.9, BRD field isolate)
Assay: MIC, broth-microdilution (CLSI VET01-A4)
Format: cell-based
Details: not given
In short: (§2)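 Broth microdilution per CLSI VET01-A4 using doubling dilution series of compound. MIC taken as the lowest concentration with no turbidity visible to the unaided eye, interpreted per CLSI VET01-S3.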

Row | Structure (SMILES) | MIC | MIC MH 13065
33 | C[C@@H](O)[C@H](NC(=O)c1ccc(C#Cc2ccc(CNCc3nccs3)cc2)cc1)C(=O)NO [Compound 359] | 0.2 µM (≈ 0.0929 µg/mL) | –
34 | CC(C)(O)C(NC(=O)c1ccc(C#Cc2ccc(CNCc3ccccn3)cc2)cc1)C(=O)NO (stereo not shown) [Compound 576] | 0.8 µM (≈ 0.378 µg/mL) | –
35 | CC(C)(O)C(NC(=O)c1ccc(C#Cc2ccc(CNCc3cccs3)cc2)cc1)C(=O)NO (stereo not shown) [Compound 578] | – | <=0.1 μM
36 | C[C@@H](O)[C@H](NC(=O)c1ccc(C#Cc2ccc(CNCc3cccs3)cc2)cc1)C(=O)NO [Compound 260] | 0.4 µM (≈ 0.185 µg/mL) | –

Test system: Mannheimia haemolytica MH 13093 (XB0472-6014.1, BRD field isolate)
Assay: MIC, broth-microdilution (CLSI VET01-A4)
Format: cell-based
Details: not given
In short: as §2

Row | Structure (SMILES) | MIC
37 | C[C@@H](O)[C@H](NC(=O)c1ccc(C#Cc2ccc(CNCc3nccs3)cc2)cc1)C(=O)NO [Compound 359] | 0.4 µM (≈ 0.186 µg/mL)
38 | CC(C)(O)C(NC(=O)c1ccc(C#Cc2ccc(CNCc3ccccn3)cc2)cc1)C(=O)NO (stereo not shown) [Compound 576] | 0.8 µM (≈ 0.378 µg/mL)
39 | CC(C)(O)C(NC(=O)c1ccc(C#Cc2ccc(CNCc3cccs3)cc2)cc1)C(=O)NO (stereo not shown) [Compound 578] | 0.2 µM (≈ 0.0955 µg/mL)
40 | C[C@@H](O)[C@H](NC(=O)c1ccc(C#Cc2ccc(CNCc3cccs3)cc2)cc1)C(=O)NO [Compound 260] | 0.4 µM (≈ 0.185 µg/mL)
